Source: publication PMC7402526, “An in vitro quantitative systems pharmacology approach for deconvolving mechanisms of drug-induced, multilineage cytopenias” (PLoS Computational Biology, 2020)

Assays:
[1] = tested on: human bone marrow-derived CD34+ cells differentiated into multiple hematopoietic lineages; assay: MLTA, overall effects across hematopoietic lineages; assay type: cell-based; conditions: QSP model fit; EmaxT > 1.0 = cell-killing
Procedure: A custom optimized cytokine cocktail was developed using commercially available cytokines (Peprotech, New Jersey) to facilitate simultaneous multi-lineage differentiation and self-renewal of freeze-thawed primary human bone marrow-derived CD34+ cells in SFEM II media (cells and media from StemCell Technologies, Vancouver). Cultures were carried out in ultra-low attachment 96-well plates (Corning, New York) with test article added on day 0 and cultured at 37°C, 85% relative humidity, and 5% CO2 for six days before interrogating drug impact via 17-parameter flow cytometry.
The flow cytometry panel used to define hematopoietic subsets was composed of CD34-PECy7, CD90-PECY5, CD38-AF488, CD371-PE, CD45Ra-BV421, CD14-BV605, CD42b-AF647, CD10-PEDazzle594, CD235a-PerCPCy5.5 (BioLegend, California), CD15-BUV395, CD41a-APCH7, CD71-BV786 (BD Biosciences, California), and DAPI for dead cell exclusion (ThermoFisher, California). In short, Day 6 cells were harvested, FcR-blocked (FcR binding inhibitor, ThermoFisher), surface-stained, then analyzed in a buffer containing TruCount Control Beads using a BD LSR Fortessa SORP fitted with a high-throughput sampler (BD Biosciences, California). Data was analyzed in Diva 6.0.2 and exported to CSV where after all cell data was transformed to cell per mL then normalized on a per-donor basis to untreated control wells to determine drug impact.
Donor material was collected and cultured as described above. The number of replicate donor samples per drug ranged from 2–7 and varied per drug (S1 Table). Drug treatment was added at time 0 and cells were maintained in culture for 6 days. Concentrations tested for each drug compound are contained in S1 Table. Concentrations were selected to span a range that is clinically useful. Following treatment, cell populations were measured using flow cytometry. We extracted cell counts from flow cytometry data, normalized to bead counts, and corrected for well volume.
Each well was normalized to the average of six vehicle control wells. For drugs that were tested across multiple runs of the assay, vehicle-normalized donor data were pooled, and we used the average of these pooled data for further modeling. Normalized data used as model inputs are included in S1 Table.
We implemented drug effects using an Emax model for the drug’s effect on each cell type. The 13 maximum effect parameters (EmaxT,C) are unitless and can vary between 0 and 2 and where a subscript, C, represents one of the previously described 13 cell types. We adapted a traditional Emax model using the equations below. We interpreted EmaxT values less than or equal to one as anti-proliferative, and EmaxT values greater than one as indicating a cell-killing mechanism in addition to anti-proliferation. The relationships for these effects are included in the model using the following equations. Eq 2 describes the drug anti-proliferative effect in the net proliferation rate for a given cell type. Eq 3 describes the cell-killing EmaxCK effect.

[2] = tested on: monocyte progenitors (monocyte prog); assay: MLTA, MonoP: concentration-response and QSP model fit; assay type: cell-based, human; conditions: Homo sapiens, Monocyte, 144 h
Procedure, shortened: (§1)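 Drug was added at time 0 to thawed human bone marrow CD34+ cells in SFEM II plus a cytokine cocktail. After 6 days at 37°C, subsets were counted by surface-marker flow with TruCount beads. Vehicle-normalized, donor-pooled data then fed an Emax model separating anti-proliferative from cell-killing effects.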

[3] = tested on: hematopoietic stem cells (HSCs); assay: Multi-lineage toxicity assay (MLTA), HSCs: concentration-response and QSP model fit; assay type: cell-based, human; set-up: EmaxAP,HSC / EmaxT,HSC / Emax_drug_HSC: unitless, 0–2; ≤1 anti-proliferative, >1 adds cell killing
Procedure, shortened: (§2)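 Parameters come from fitting an Emax-based QSP model, with L1 regularization and Emax ranging 0–2, to vehicle-normalized, bead-corrected flow cytometry counts. Counts came from human bone marrow CD34+ cells treated from day 0 through a 6-day multi-lineage cytokine culture in SFEM II, using 2–7 donors per drug.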

[4] = tested on: total dead cells (totalDeadCells); assay: MLTA, total dead cells concentration-response; assay type: cell-based; conditions: Homo sapiens, 144 h, 6 days, normalized to vehicle control, read-out: total_dead normalized cell count
Procedure, shortened: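 Freeze-thawed primary human bone marrow CD34+ cells in SFEM II with cytokine cocktail, drug added day 0, 6 days at 37°C, 5% CO2. Live/dead counts by 17-parameter flow cytometry with DAPI exclusion, bead-normalized, volume-corrected to cells/mL. Normalized per donor to mean of six vehicle wells; 2–7 donors pooled.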

[5] = tested on: neutrophils (neutrophil-lin); assay: MLTA, Neut: concentration-response and QSP model fit; assay type: cell-based, human; conditions: Homo sapiens, Neutrophil, 144 h
Procedure, shortened: as §2

[6] = tested on: early erythroid cells (Eryth I); assay: MLTA, ErythI: concentration-response and QSP model fit; assay type: cell-based, human; conditions: Homo sapiens, 144 h
Procedure, shortened: as §1

[7] = tested on: late erythroid cells (Eryth II); assay: MLTA, ErythII: concentration-response and QSP model fit; assay type: cell-based, human; conditions: Homo sapiens, 144 h
Procedure, shortened: as §2

[8] = tested on: monocytes (monocyte-lin); assay: MLTA, Mono: concentration-response and QSP model fit; assay type: cell-based, human; conditions: Homo sapiens, Monocyte, 144 h
Procedure, shortened: as §1

[9] = QSP model fit of 6-day MLTA data

Q: CC(=O)c1c(C)c2cnc(Nc3ccc(N4CCNCC4)cn3)nc2n(C2CCCC2)c1=O [palbociclib] was tested. Which “EmaxT effects across cell types (overall statement)” value [1] did it give?
A: anti-proliferation effects on essentially just the HSCs and GMPs

Q: What about the activity at 0.0002 µM ([2]; dose 0.2 nM, 6 days, normalized to vehicle control, read-out: MonoPs normalized cell count) of the same compound?
A: 101%

Q: And the activity at 0.001 µM ([2]; dose 1 nM, 6 days, normalized to vehicle control, read-out: MonoPs normalized cell count)?
A: 92.3%

Q: And the activity at 0.005 µM ([2]; dose 5 nM, 6 days, normalized to vehicle control, read-out: MonoPs normalized cell count)?
A: 97.3%

Q: What about the activity at 0.025 µM ([2]; dose 25 nM, 6 days, normalized to vehicle control, read-out: MonoPs normalized cell count) of the same compound?
A: 44.4%

Q: What about the activity at 0.1 µM ([2]; dose 100 nM, 6 days, normalized to vehicle control, read-out: MonoPs normalized cell count) of the same compound?
A: 14.1%

Q: And the activity at 0.5 µM ([2]; dose 500 nM, 6 days, normalized to vehicle control, read-out: MonoPs normalized cell count)?
A: 4.6%

Q: What about the activity at 2.5 µM ([2]; dose 2500 nM, 6 days, normalized to vehicle control, read-out: MonoPs normalized cell count) of the same compound?
A: 0.787%

Q: What about the Emax ([2]; parameter from QSP model fitting, read-out: Emax_drug_MonoP) of the same compound?
A: 0.0351%

Q: And the EC50 ([3]; Homo sapiens, Hematopoietic stem cell, 144 h, QSP model fit of 6-day MLTA data)?
A: 0.166 µM

Q: And the activity at 0.0002 µM ([3]; Homo sapiens, Hematopoietic stem cell, 144 h, dose 0.2 nM, 6 days, normalized to vehicle control, read-out: HSCs normalized cell count)?
A: 89.4%

Q: And the activity at 0.001 µM ([3]; Homo sapiens, Hematopoietic stem cell, 144 h, dose 1 nM, 6 days, normalized to vehicle control, read-out: HSCs normalized cell count)?
A: 92%

Q: What about the activity at 0.005 µM ([3]; Homo sapiens, Hematopoietic stem cell, 144 h, dose 5 nM, 6 days, normalized to vehicle control, read-out: HSCs normalized cell count) of the same compound?
A: 98.5%

Q: And the activity at 0.025 µM ([3]; Homo sapiens, Hematopoietic stem cell, 144 h, dose 25 nM, 6 days, normalized to vehicle control, read-out: HSCs normalized cell count)?
A: 83.4%

Q: And the activity at 0.1 µM ([3]; Homo sapiens, Hematopoietic stem cell, 144 h, dose 100 nM, 6 days, normalized to vehicle control, read-out: HSCs normalized cell count)?
A: 48.9%

Q: What about the activity at 0.5 µM ([3]; Homo sapiens, Hematopoietic stem cell, 144 h, dose 500 nM, 6 days, normalized to vehicle control, read-out: HSCs normalized cell count) of the same compound?
A: 25%

Q: And the activity at 2.5 µM ([3]; Homo sapiens, Hematopoietic stem cell, 144 h, dose 2500 nM, 6 days, normalized to vehicle control, read-out: HSCs normalized cell count)?
A: 9.86%

Q: And the Emax ([3]; Homo sapiens, Hematopoietic stem cell, 144 h, parameter from QSP model fitting, read-out: Emax_drug_HSC)?
A: 77.6%

Q: What about the “EmaxAP,HSC” value ([3]; anti-proliferation component, min(1, EmaxT)) of the same compound?
A: 0.776

Q: What about the activity at 0.0002 µM ([4]; dose 0.2 nM) of the same compound?
A: 101%

Q: And the activity at 0.001 µM ([4]; dose 1 nM)?
A: 102%

Q: And the activity at 0.005 µM ([4]; dose 5 nM)?
A: 103%

Q: And the activity at 0.025 µM ([4]; dose 25 nM)?
A: 64.6%

Q: And the activity at 0.1 µM ([4]; dose 100 nM)?
A: 40.5%

Q: And the activity at 0.5 µM ([4]; dose 500 nM)?
A: 28.9%

Q: What about the activity at 2.5 µM ([4]; dose 2500 nM) of the same compound?
A: 22.7%

Q: What about the EC50 [5, 9] of the same compound?
A: 0.075 µM

Q: What about the activity at 0.0002 µM ([5]; dose 0.2 nM, 6 days, normalized to vehicle control, read-out: Neut normalized cell count) of the same compound?
A: 95.1%

Q: And the activity at 0.001 µM ([5]; dose 1 nM, 6 days, normalized to vehicle control, read-out: Neut normalized cell count)?
A: 93.8%

Q: What about the activity at 0.005 µM ([5]; dose 5 nM, 6 days, normalized to vehicle control, read-out: Neut normalized cell count) of the same compound?
A: 74.6%

Q: And the activity at 0.025 µM ([5]; dose 25 nM, 6 days, normalized to vehicle control, read-out: Neut normalized cell count)?
A: 51.7%

Q: What about the activity at 0.1 µM ([5]; dose 100 nM, 6 days, normalized to vehicle control, read-out: Neut normalized cell count) of the same compound?
A: 21.1%

Q: What about the activity at 0.5 µM ([5]; dose 500 nM, 6 days, normalized to vehicle control, read-out: Neut normalized cell count) of the same compound?
A: 3.9%

Q: And the activity at 2.5 µM ([5]; dose 2500 nM, 6 days, normalized to vehicle control, read-out: Neut normalized cell count)?
A: 0.666%

Q: What about the Emax ([5]; parameter from QSP model fitting, read-out: Emax_drug_Neut) of the same compound?
A: 18.4%

Q: What about the activity at 0.0002 µM ([6]; dose 0.2 nM, 6 days, normalized to vehicle control, read-out: ErythI normalized cell count) of the same compound?
A: 104%

Q: And the activity at 0.001 µM ([6]; dose 1 nM, 6 days, normalized to vehicle control, read-out: ErythI normalized cell count)?
A: 109%

Q: And the activity at 0.005 µM ([6]; dose 5 nM, 6 days, normalized to vehicle control, read-out: ErythI normalized cell count)?
A: 96.4%

Q: What about the activity at 0.025 µM ([6]; dose 25 nM, 6 days, normalized to vehicle control, read-out: ErythI normalized cell count) of the same compound?
A: 72.1%

Q: What about the activity at 0.1 µM ([6]; dose 100 nM, 6 days, normalized to vehicle control, read-out: ErythI normalized cell count) of the same compound?
A: 35.1%

Q: What about the activity at 0.5 µM ([6]; dose 500 nM, 6 days, normalized to vehicle control, read-out: ErythI normalized cell count) of the same compound?
A: 9.41%

Q: And the activity at 2.5 µM ([6]; dose 2500 nM, 6 days, normalized to vehicle control, read-out: ErythI normalized cell count)?
A: 2.34%

Q: And the Emax ([6]; parameter from QSP model fitting, read-out: Emax_drug_ErythroidI)?
A: 0.04%

Q: And the EC50 ([7]; QSP model fit of 6-day MLTA data, read-out: EC50ErythII)?
A: 0.0995 µM

Q: And the activity at 0.0002 µM ([7]; dose 0.2 nM, 6 days, normalized to vehicle control, read-out: ErythII normalized cell count)?
A: 89%

Q: What about the activity at 0.001 µM ([7]; dose 1 nM, 6 days, normalized to vehicle control, read-out: ErythII normalized cell count) of the same compound?
A: 103%

Q: And the activity at 0.005 µM ([7]; dose 5 nM, 6 days, normalized to vehicle control, read-out: ErythII normalized cell count)?
A: 99.1%

Q: What about the activity at 0.025 µM ([7]; dose 25 nM, 6 days, normalized to vehicle control, read-out: ErythII normalized cell count) of the same compound?
A: 82.3%

Q: And the activity at 0.1 µM ([7]; dose 100 nM, 6 days, normalized to vehicle control, read-out: ErythII normalized cell count)?
A: 56.9%

Q: And the activity at 0.5 µM ([7]; dose 500 nM, 6 days, normalized to vehicle control, read-out: ErythII normalized cell count)?
A: 30.3%

Q: What about the activity at 2.5 µM ([7]; dose 2500 nM, 6 days, normalized to vehicle control, read-out: ErythII normalized cell count) of the same compound?
A: 14.3%

Q: What about the Emax ([7]; parameter from QSP model fitting, read-out: Emax_drug_ErythroidII) of the same compound?
A: 11.8%

Q: And the EC50 [8, 9]?
A: 0.0393 µM

Q: And the activity at 0.0002 µM ([8]; dose 0.2 nM, 6 days, normalized to vehicle control, read-out: Mon normalized cell count)?
A: 90%

Q: What about the activity at 0.001 µM ([8]; dose 1 nM, 6 days, normalized to vehicle control, read-out: Mon normalized cell count) of the same compound?
A: 106%

Q: What about the activity at 0.005 µM ([8]; dose 5 nM, 6 days, normalized to vehicle control, read-out: Mon normalized cell count) of the same compound?
A: 89.9%

Q: What about the activity at 0.025 µM ([8]; dose 25 nM, 6 days, normalized to vehicle control, read-out: Mon normalized cell count) of the same compound?
A: 58.8%

Q: And the activity at 0.1 µM ([8]; dose 100 nM, 6 days, normalized to vehicle control, read-out: Mon normalized cell count)?
A: 25.6%

Q: And the activity at 0.5 µM ([8]; dose 500 nM, 6 days, normalized to vehicle control, read-out: Mon normalized cell count)?
A: 13.2%

Q: And the activity at 2.5 µM ([8]; dose 2500 nM, 6 days, normalized to vehicle control, read-out: Mon normalized cell count)?
A: 23.9%

Q: And the Emax ([8]; parameter from QSP model fitting, read-out: Emax_drug_Mono)?
A: 14.2%
